For test [1], the target named is T1, DEK20 (phosphoglycerate dehydrogenase1, PGDH1) (Zea mays, UniProt A0A1D6DW07, S282L).
T1 construct: gene LOC103645840; recombinant His-DEK20
Kind of test: microscale thermophoresis (MST). It counts as binding. For orientation: MST reads how a fluorescent partner responds to local heating, with and without ligand.

In test [2] the target is T2, DEK20 (phosphoglycerate dehydrogenase1, PGDH1) (Zea mays, UniProt A0A1D6DW07).
T2 construct: gene LOC103645840; recombinant His-DEK20
T2 sequence (A0A1D6DW07 1-387): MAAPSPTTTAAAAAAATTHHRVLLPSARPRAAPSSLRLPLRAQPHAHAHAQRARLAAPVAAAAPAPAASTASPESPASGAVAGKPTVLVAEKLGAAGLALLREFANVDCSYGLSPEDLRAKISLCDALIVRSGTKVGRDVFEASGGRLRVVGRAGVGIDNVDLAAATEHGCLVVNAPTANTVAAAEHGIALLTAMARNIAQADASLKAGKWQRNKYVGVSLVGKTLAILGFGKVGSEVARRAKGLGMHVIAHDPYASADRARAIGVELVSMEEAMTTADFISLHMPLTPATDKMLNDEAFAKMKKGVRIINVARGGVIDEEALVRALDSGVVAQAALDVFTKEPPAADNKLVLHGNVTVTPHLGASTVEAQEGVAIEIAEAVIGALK
Description: microscale thermophoresis (MST). In kind it is binding.

Test [3] concerns the target DEK20^WT (truncated DEK20, residues 1-387, substrate binding domain and nucleotide-binding domain) (maize (Zea mays)). Description: crystal structure; apo form, 3.5 Å; about 16 mg/ml DEK20^WT crystallised in sodium nitrate, sodium phosphate dibasic, ammonium sulfate, HEPES/MOPS pH 7.5, glycerol, PEG 4000; solved by molecular replacement.

T1 sequence (A0A1D6DW07 entry or part of it S282L): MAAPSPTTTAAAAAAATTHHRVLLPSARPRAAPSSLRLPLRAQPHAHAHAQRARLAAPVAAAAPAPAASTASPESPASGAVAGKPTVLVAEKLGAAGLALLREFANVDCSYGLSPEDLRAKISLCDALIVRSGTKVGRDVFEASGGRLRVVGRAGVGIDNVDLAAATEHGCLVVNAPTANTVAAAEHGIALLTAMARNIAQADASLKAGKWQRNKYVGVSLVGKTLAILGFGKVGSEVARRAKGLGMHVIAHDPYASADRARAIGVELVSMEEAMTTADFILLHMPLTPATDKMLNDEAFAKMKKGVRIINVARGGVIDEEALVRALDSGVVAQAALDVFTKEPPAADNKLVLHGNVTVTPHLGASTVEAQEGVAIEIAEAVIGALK

As a reminder, the Kd is the free concentration of one partner at which half of the binding sites on the other are occupied at equilibrium, for simple one-to-one binding. As for `NC(=O)c1ccc[n+]([C@@H]2O[C@H](COP(=O)([O-])OP(=O)(O)OC[C@H]3O[C@@H](n4cnc5c(N)ncnc54)[C@H](O)[C@@H]3O)[C@@H](O)[C@H]2O)c1` [NAD^+], the Kd in test [1] worked out at 8.11 µM; in test [2] it was 32.4 µM.

In general, stoichiometry N refers to a count of units in the complex or per binding partner. Compound “DEK20^WT (truncated DEK20, residues 1-387, substrate binding domain and nucleotide-binding domain) (domain or fragment)” returned a stoichiometry N in test [3] of 2.

These data come from paper PMC12164754, “Phosphoglycerate dehydrogenase is required for kernel development and defines a predominant serine synthesis pathway in maize” (The Plant Cell, 2025).
